Assays:
[1] = Pharmacokinetics Assay in rats, intragastric administration, LC/MS/MS; type: in vivo; conditions: both sexes, rat, plasma, po, SD rats, 25 mg/kg; for Vd/F: read-out: Apparent Distribution Volume Vz/F; for CL/F: read-out: Clearance CL/F (converted); for half-life: read-out: Half-Life t½ (converted); for Cmax: read-out: Plasma Conc. Cmax
Protocol: The pharmacokinetic behavior of the compounds of the present invention was studied and evaluated in rats. 8 healthy adult SD rats, male and female in half, were purchased from SINO-BRITSH SIPPR/BK LAB. ANIMAL LTD., CO, License number: SCXK (Shanghai) 2003-0002 The right amount of compounds were weighted and grinded with 0.5% Sodium Carboxymethyl cellulose uniformly, suspended them with 1% tween 80 to 2.5 mg/mL of suspension before use. […] 8 Healthy adult adult SD rats, male and female in half, were divided into 2 groups. After an overnight fast, the rats were administered intragastrically at a dose of 25.0 mg/kg. […] The plasma samples were stored at −20° C. until analysis. The rats were fed 2 hours after administration. 50 μL of rat plasmas taken at various time points after administration were mixed with 50 μL of standard series solution to obtain plasma concentration of 50.0, 100, 200, 500, 1000, 2000, 5000 ng/mL. 150 μL methanol was added and then the mixture was mixed for 3 minute using a vortexer and centrifuged for 10 minutes at 13,500 rpm. 10 μL of the supernatant was analyzed by LC-MS/MS. The main pharmacokinetic parameters were caculated by DAS 2.0 software.

[2] = system: xenografts of Calu-3 human lung cancer; assay: Therapeutic effects against xenografts of Calu-3 human lung cancer in nude mice; type: in vivo, BALB/cA-nude mice; conditions: for tolerance of the mice: present administration protocol
Protocol: BALB/cA-nude mice, 6 to 7 weeks old, ♀, purchased from Slaccas Experimental Animal LTD., CO.
Nude mice were hypodermic inoculated Calu-3 human lung cancer cell. After tumors grew to 150-250 mm^3, mice were randomly divided into teams (d0).
The volume of tumors and the weigh of the mice were measured and recorded for 2-3 times per week.
The calculation formula of the volume of tumor (V) is: V=½×a×b^2, a: length of tumor, b: width of tumor.

[3] = system: human epidermoid carcinoma A431 cells; assay: EGFR Cell Proliferation Inhibition Assay (SRB method, 72 hours); type: cell-based; conditions: A-431
Excerpt: The activity is represented by the IC50 value. The general procedures of the assay are given as follows: The cancer cells A431 that highly expressing EGFR (Institute of biochemistry and cell biology) were chosen and seeded to 96-well cell culture plate at a suitable concentration (e.g., 5000 cells/mL medium). […] Then, the cell culture medium was replaced by fresh one with tested compounds added in it at serial concentrations (general 6 to 7 concentrations). Then the cells were put back to the incubator and cultured continuously. 72 hours later, the activity of the tested compounds for inhibiting the cell proliferation was determined by using Sulforhodamine B (SRB) method. IC50 value on tested cells are calculated by the data of inhibition rates of serial concentrations of the tested compounds.

EGFR kinase = EGFR kinase (Homo sapiens (Human), UniProt P00533); assay: EGFR Kinase Activity Assay (Time-Resolved fluorescence); type: biochemical; conditions: human-derived recombinant EGFR kinase, 20 μM ATP, 25° C., 45 minutes; read-out: IC50 (EGFR/BIO)
Chain of EGFR kinase (P00533 25-1210): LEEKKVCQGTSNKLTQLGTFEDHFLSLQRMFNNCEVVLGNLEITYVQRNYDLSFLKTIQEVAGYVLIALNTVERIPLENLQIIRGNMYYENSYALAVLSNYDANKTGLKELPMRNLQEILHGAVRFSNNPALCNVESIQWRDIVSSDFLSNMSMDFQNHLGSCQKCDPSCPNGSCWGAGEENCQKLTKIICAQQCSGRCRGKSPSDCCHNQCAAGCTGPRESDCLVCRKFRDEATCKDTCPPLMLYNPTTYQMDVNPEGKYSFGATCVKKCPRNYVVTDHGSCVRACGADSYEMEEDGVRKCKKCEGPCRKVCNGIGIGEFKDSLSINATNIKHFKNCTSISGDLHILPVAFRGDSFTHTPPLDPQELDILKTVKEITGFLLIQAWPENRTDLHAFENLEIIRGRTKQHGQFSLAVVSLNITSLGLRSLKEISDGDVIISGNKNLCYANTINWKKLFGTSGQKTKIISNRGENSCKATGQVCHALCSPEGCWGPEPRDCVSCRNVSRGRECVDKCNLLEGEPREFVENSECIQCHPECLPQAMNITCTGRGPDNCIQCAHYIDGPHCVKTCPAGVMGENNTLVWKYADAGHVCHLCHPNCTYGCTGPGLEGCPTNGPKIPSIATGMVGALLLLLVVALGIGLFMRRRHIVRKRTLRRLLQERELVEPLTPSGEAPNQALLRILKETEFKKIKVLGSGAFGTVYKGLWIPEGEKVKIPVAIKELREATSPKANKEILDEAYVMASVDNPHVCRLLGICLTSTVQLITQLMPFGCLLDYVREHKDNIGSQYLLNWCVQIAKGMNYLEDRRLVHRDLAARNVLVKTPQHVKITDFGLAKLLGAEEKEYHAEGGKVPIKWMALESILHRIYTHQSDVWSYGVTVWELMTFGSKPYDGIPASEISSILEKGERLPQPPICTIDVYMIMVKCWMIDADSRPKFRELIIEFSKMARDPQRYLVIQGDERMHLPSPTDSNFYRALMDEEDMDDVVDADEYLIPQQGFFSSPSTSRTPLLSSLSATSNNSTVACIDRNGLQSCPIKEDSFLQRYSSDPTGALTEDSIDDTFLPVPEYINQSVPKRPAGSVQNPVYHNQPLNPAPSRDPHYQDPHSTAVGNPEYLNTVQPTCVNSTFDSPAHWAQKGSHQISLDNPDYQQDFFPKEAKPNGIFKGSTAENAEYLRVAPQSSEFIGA
Protocol: The in vitro EGFR kinase activity was tested by the following assay.
The following assay may be used to determine the activity of the compounds of the invention for inhibiting EGFR kinase activity. […] EGFR kinase used in this assay is a human-derived recombinant protein (Cell signaling technology, #7908), which was reacted with peptide substrate and different concentrations of tested compounds in a buffer solution containing 60 mM HEPES (pH7.5), 5 mM MgCl2, 5 mM MnCl2, 3 μM Na3VO4, […] (1000×) and 20 μM ATP at 25° C., for 45 minutes. The EGFR kinase activity was determined by using a Time-Resolved fluorescence method.

[4] = high dose (200 mg/kg), Calu-3 xenografts
[5] = low dose (100 mg/kg), Calu-3 xenografts

SMILES | IC50 [3] [nM] | IC50 (EGFR kinase) [nM] | Vd/F [1] [L/kg] | CL/F [1] [mL/min/kg] | half-life [1] [h] | Cmax [1] [ng/mL] | reduced tumor volume (fraction of tumors) [2, 4] | reduced tumor volume (fraction of tumors) [2, 5] | tolerance of the mice [2] | also measured
CCOc1cc2ncc(C#N)c(Nc3ccc(OCc4ccccn4)c(Cl)c3)c2cc1NC(=O)/C=C/[C@@H]1CCCN1C [Example 1, (E)-N-[4-[[3-Chloro-4-(2-pyridylmethoxy)phenyl]amino]-3-cyano-7-ethoxy-6-quinolyl]-3-[(2S)-1-methylpyrrolidin-2-yl]prop-2-enamide] | – | – | 3.71 ± 1.68 | 12.7 | 4.04 ± 1.39 | 4480 ± 1880 | 1/6 | 2/6 | well tolerant | MRT ([1]; read-out: Mean Residence Time MRT): 7.78 ± 1.89 h; inhibition of the growth of Calu-3 human lung cancer (in words) ([2]; Calu-3 xenografts): markedly inhibited; completely degraded tumor (fraction of tumors) [2, 4]: 1/6
CCOc1cc2ncc(C#N)c(Nc3ccc(OCc4ccccn4)c(Cl)c3)c2cc1NC(=O)/C=C/[C@@H]1CCCN1 [Example 2, (E)-N-[4-[[3-Chloro-4-(2-pyridylmethoxy)phenyl]amino]-3-cyano-7-ethoxy-6-quinolyl]-3-[(2S)-pyrrolidin-2-yl]prop-2-enamide] | 3 | 6 | – | – | – | – | – | – | – | –
CCOc1cc2ncc(C#N)c(Nc3ccc(OCc4ccccn4)c(Cl)c3)c2cc1NC(=O)/C=C/[C@@H]1C[C@@H](O)CN1C [Example 3, (E)-N-[4-[[3-Chloro-4-(2-pyridylmethoxy)phenyl]amino]-3-cyano-7-ethoxy-6-quinolyl]-3-[(2S,4R)-4-hydroxy-1-methyl-pyrrolidin-2-yl]prop-2-enamide] | 36 | 59 | – | – | – | – | – | – | – | –
CCOc1cc2ncc(C#N)c(Nc3ccc(OCc4ccccn4)c(Cl)c3)c2cc1NC(=O)/C=C/[C@H]1CCCN1C [Example 5, (E)-N-[4-[[3-Chloro-4-(2-pyridylmethoxy)phenyl]amino]-3-cyano-7-ethoxy-6-quinolyl]-3-[(2R)-1-methylpyrrolidin-2-yl]prop-2-enamide] | – | – | 2.6 ± 0.94 | 8.83 | 3.4 ± 0.45 | 6470 ± 1810 | 4/6 | 3/6 | well tolerant | –

Second part, led by results:

IC50 [3] [nM] | IC50 (EGFR kinase) [nM] | SMILES | Vd/F [1] [L/kg] | CL/F [1] [mL/min/kg] | half-life [1] [h] | Cmax [1] [ng/mL] | reduced tumor volume (fraction of tumors) [2, 4] | reduced tumor volume (fraction of tumors) [2, 5] | tolerance of the mice [2] | also measured
– | 4 | CCOc1cc2ncnc(Nc3ccc(F)c(Cl)c3)c2cc1NC(=O)/C=C/[C@@H]1CCCN1C [Example 7, (E)-N-[4-[(3-Chloro-4-fluoro-phenyl)amino]-7-ethoxy-quinazolin-6-yl]-3-[(2S)-1-methylpyrrolidin-2-yl]prop-2-enamide] | – | – | – | – | – | – | – | –
8 | 2 | CCOc1cc2ncnc(Nc3ccc(F)c(Cl)c3)c2cc1NC(=O)/C=C/[C@H]1CCCN1C [Example 9, (E)-N-[4-[(3-Chloro-4-fluoro-phenyl)amino]-7-ethoxy-quinazolin-6-yl]-3-[(2R)-1-methylpyrrolidin-2-yl]prop-2-enamide] | – | – | – | – | – | – | – | –

Reference: patent US8901140B2, “6-amino quinazoline or 3-cyano quinoline derivatives, preparation methods and pharmaceutical uses thereof” (Jiangsu Hengrui Medicine Co., Ltd., priority 2009, dated 2014)
